Source: US20100278733A1, “COMPOSITION FOR DIAGNOSIS OF AMYLOID-RELATED DISEASE” (priority 2007, published 2010)
Blank lines part the entries; values can stand above or below the molecule they belong to.

Legend:
[1] = In-vivo radioactivity distribution experiment using normal mice (Example 2); conditions: Example 2 numbering; for In-vivo radioactivity distribution: blood / In-vivo radioactivity distribution: brain / In-vivo radioactivity distribution: heart / In-vivo radioactivity distribution: intestine / In-vivo radioactivity distribution: kidney / In-vivo radioactivity distribution: liver / In-vivo radioactivity distribution: lung / In-vivo radioactivity distribution: pancreas / In-vivo radioactivity distribution: spleen / In-vivo radioactivity distribution: stomach: normal mice, intravenous
Protocol: Radioactive iodine labeling compounds were diluted with physiological saline containing 10% EtOH. To each of four or five 5-week-old male ddY mice (20 to 25 g) per group, […] of a labeled compound, [^125I]Compound 7, 10, 13, or 14 (0.2 to 0.4 mCi), was administered from the caudal vein. Animals were decapitated at 2, 10, 30, or 60 min, blood was collected, the major organs were isolated, and then weights and radioactivities thereof were measured.

Aβ(1-42) aggregate = molecular target: T1, Aβ(1-42) aggregate (Homo sapiens, UniProt P05067); assay: Binding inhibition experiment using Aβ(1-42) aggregate, Ki values (Example 2); conditions: compound numbers of Example 2; for Ki: radioactive ligand [^125I]CL-NMe2, mean ± standard error of 3 experiments (compound 4: 6 experiments), read-out: Ki values calculated by inhibition experiment
T1 construct: Amyloid β protein (Human, 1-42) [TFA form] was purchased from Peptide Institute, Inc; purchased Peptide Institute, Inc
Protocol: As a radioactive iodine-125 (^125I), Iodine-125 (3.7 GBq/mL) manufactured by MP Biomedicals, Inc. was used. Reverse phase HPLC was performed at a flow rate of 1.0 mL/min using a Cosmosil 5C18-AR-II column (4.6×150 mm) manufactured by Nacalai Tesque Inc. and ultrapure water:acetonitrile=3:7 as an elution solvent. ^1HNMR was measured using Varian Gemini 300 and tetramethylsilane as an internal standard substance. Mass spectrometry was performed using JEOL IMS-DX300. Preparative TLC was performed using 12 PLC plates 20×20-cm-Silica gel 60 F254, 2 mm manufactured by MERCK. Amyloid β protein (Human, 1-42) was purchased from Peptide Institute, Inc., and special grade reagents were used as other reagents.
Aβ(1-42) was dissolved in 10 mM phosphate buffer containing 1 mM EDTA (pH 7.4) at a concentration of 0.25 mg/mL, and the mixture was incubated at 37° C. for 42 h to prepare an Aβ(1-42) aggregate.
[…] of 10% EtOH solution, […] of a solution of [^125I]4-diethylamino-4′-iodochalcone ([^125I]CL-NMe2) in 10% ethanol, and […] of a sample solution at various concentrations (0 to 20 mM) were mixed, […] of an Aβ(1-42) aggregate solution was finally added, and the mixture was allowed to stand at room temperature for 3 h. Aβ(1-42) aggregate-bound compounds and nonbound compounds were separated with a Brandel M-24R cell harvester using a Whatman GF/B filter. Radioactivities remaining on the filter after filtration were measured with a γ-counter, and inhibition curves were created using Graph Pad Prism 4.0 to calculate inhibition constants (Ki values).

T1 sequence (P05067 672-713 limits assumed): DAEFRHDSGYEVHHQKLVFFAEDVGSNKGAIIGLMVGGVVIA

Ki (Aβ(1-42) aggregate): 1.16 ± 0.154 µM
Compound: COc1cc(/C=C/C(=O)c2ccc(I)cc2)ccc1O [Compound 40 in Example 2, 4-hydroxy-4′-iodo-3-methoxychalcone]
binding affinity for the Aβ(1-42) aggregate (Aβ(1-42) aggregate; in words, derivatives with two substituents on Ring A): no compound showed a high binding affinity

Ki (Aβ(1-42) aggregate): 0.113 ± 0.0101 µM
Compound: CN(C)c1ccc(C=CC(=O)c2ccc(I)cc2)s1 [Compound 33 in Example 2, 3-(5-dimethylamino-2-thienyl)-1-(4-iodophenyl)-prop-2-en-1-one]

Ki (Aβ(1-42) aggregate): 0.137 ± 0.0034 µM
Compound: CN(C)c1ccc(C=CC(=O)c2ccc(I)s2)s1 [Compound 37 in Example 2, 3-(S-dimethylamino-2-thienyl)-1-(5-iodo-2-thienyl)-prop-2-en-1-one]

Ki (Aβ(1-42) aggregate): 1.61 ± 0.0845 µM
Compound: CN(C)c1ccc(C=CC(=O)c2ccc(I)s2)o1 [Compound 36 in Example 2, 3-(5-dimethylamino-2-furyl)-1-(5-iodo-2-thienyl)-prop-2-en-1-one]

Continued, molecule first:

Compound: CN(C)c1ccc(C(=O)/C=C/c2ccc(I)cc2)cc1 [Compound 10 in Example 2, 4-iodo-4′-dimethylaminochalcone]
In-vivo radioactivity distribution: blood ([1]; 2 min): 1.87 (0.23) percent of the dose/g | In-vivo radioactivity distribution: brain ([1]; 2 min): 2.77 (0.37) percent of the dose/g | In-vivo radioactivity distribution: heart ([1]; 2 min): 5.23 (0.61) percent of the dose/g | In-vivo radioactivity distribution: intestine ([1]; 2 min): 2.69 (0.43) percent of the dose/g | In-vivo radioactivity distribution: kidney ([1]; 2 min): 6.30 (0.85) percent of the dose/g | In-vivo radioactivity distribution: liver ([1]; 2 min): 13.99 (1.57) percent of the dose/g | In-vivo radioactivity distribution: lung ([1]; 2 min): 6.02 (0.60) percent of the dose/g | In-vivo radioactivity distribution: pancreas ([1]; 2 min): 3.85 (1.97) percent of the dose/g | In-vivo radioactivity distribution: spleen ([1]; 2 min): 2.35 (0.35) percent of the dose/g | In-vivo radioactivity distribution: stomach ([1]; 2 min): 0.76 (0.13) percent of the dose | In-vivo radioactivity distribution: blood ([1]; 10 min): 1.89 (0.61) percent of the dose/g | In-vivo radioactivity distribution: brain ([1]; 10 min): 2.04 (0.26) percent of the dose/g | In-vivo radioactivity distribution: heart ([1]; 10 min): 2.05 (0.37) percent of the dose/g | In-vivo radioactivity distribution: intestine ([1]; 10 min): 9.27 (1.36) percent of the dose/g | In-vivo radioactivity distribution: kidney ([1]; 10 min): 4.51 (1.29) percent of the dose/g | In-vivo radioactivity distribution: liver ([1]; 10 min): 10.29 (2.06) percent of the dose/g | In-vivo radioactivity distribution: lung ([1]; 10 min): 3.92 (0.76) percent of the dose/g | In-vivo radioactivity distribution: pancreas ([1]; 10 min): 2.12 (0.31) percent of the dose/g | In-vivo radioactivity distribution: spleen ([1]; 10 min): 1.52 (0.19) percent of the dose/g | In-vivo radioactivity distribution: stomach ([1]; 10 min): 0.89 (0.28) percent of the dose | In-vivo radioactivity distribution: blood ([1]; 30 min): 1.51 (0.40) percent of the dose/g | In-vivo radioactivity distribution: brain ([1]; 30 min): 0.63 (0.06) percent of the dose/g | In-vivo radioactivity distribution: heart ([1]; 30 min): 1.10 (0.16) percent of the dose/g | In-vivo radioactivity distribution: intestine ([1]; 30 min): 12.50 (2.49) percent of the dose/g | In-vivo radioactivity distribution: kidney ([1]; 30 min): 4.10 (1.15) percent of the dose/g | In-vivo radioactivity distribution: liver ([1]; 30 min): 6.69 (1.21) percent of the dose/g | In-vivo radioactivity distribution: lung ([1]; 30 min): 1.95 (0.25) percent of the dose/g | In-vivo radioactivity distribution: pancreas ([1]; 30 min): 0.85 (0.10) percent of the dose/g | In-vivo radioactivity distribution: spleen ([1]; 30 min): 0.82 (0.15) percent of the dose/g | In-vivo radioactivity distribution: stomach ([1]; 30 min): 0.73 (0.23) percent of the dose | In-vivo radioactivity distribution: blood ([1]; 60 min): 1.38 (0.54) percent of the dose/g | In-vivo radioactivity distribution: brain ([1]; 60 min): 0.42 (0.11) percent of the dose/g | In-vivo radioactivity distribution: heart ([1]; 60 min): 0.84 (0.26) percent of the dose/g | In-vivo radioactivity distribution: intestine ([1]; 60 min): 20.09 (5.48) percent of the dose/g | In-vivo radioactivity distribution: kidney ([1]; 60 min): 4.59 (1.57) percent of the dose/g | In-vivo radioactivity distribution: liver ([1]; 60 min): 7.06 (2.45) percent of the dose/g | In-vivo radioactivity distribution: lung ([1]; 60 min): 1.71 (0.29) percent of the dose/g | In-vivo radioactivity distribution: pancreas ([1]; 60 min): 0.84 (0.22) percent of the dose/g | In-vivo radioactivity distribution: spleen ([1]; 60 min): 0.89 (0.12) percent of the dose/g | In-vivo radioactivity distribution: stomach ([1]; 60 min): 2.17 (1.24) percent of the dose | Ki (Aβ(1-42) aggregate): 0.0133 ± 0.0019 µM

Compound: CNc1ccc(C=CC(=O)c2ccc(I)s2)cc1 [Compound 13 in Example 2, 1-(5-iodo-2-thienyl)-3-(4-methylaminophenyl)-prop-2-en-1-one]
stability in the organism ([1]; in words: radioactivity accumulation in the stomach, retention in blood, deiodination): instability in the organism | In-vivo radioactivity distribution: blood ([1]; 2 min): 3.00 (0.83) percent of the dose/g | In-vivo radioactivity distribution: brain ([1]; 2 min): 2.56 (0.44) percent of the dose/g | In-vivo radioactivity distribution: heart ([1]; 2 min): 3.55 (0.57) percent of the dose/g | In-vivo radioactivity distribution: intestine ([1]; 2 min): 1.60 (0.32) percent of the dose/g | In-vivo radioactivity distribution: kidney ([1]; 2 min): 4.50 (1.00) percent of the dose/g | In-vivo radioactivity distribution: liver ([1]; 2 min): 8.41 (1.24) percent of the dose/g | In-vivo radioactivity distribution: lung ([1]; 2 min): 5.61 (1.33) percent of the dose/g | In-vivo radioactivity distribution: pancreas ([1]; 2 min): 3.73 (0.67) percent of the dose/g | In-vivo radioactivity distribution: spleen ([1]; 2 min): 2.06 (0.49) percent of the dose/g | In-vivo radioactivity distribution: stomach ([1]; 2 min): 1.48 (0.39) percent of the dose | In-vivo radioactivity distribution: blood ([1]; 10 min): 3.68 (0.70) percent of the dose/g | In-vivo radioactivity distribution: brain ([1]; 10 min): 1.13 (0.16) percent of the dose/g | In-vivo radioactivity distribution: heart ([1]; 10 min): 2.48 (0.36) percent of the dose/g | In-vivo radioactivity distribution: intestine ([1]; 10 min): 3.86 (0.20) percent of the dose/g | In-vivo radioactivity distribution: kidney ([1]; 10 min): 6.59 (1.34) percent of the dose/g | In-vivo radioactivity distribution: liver ([1]; 10 min): 13.29 (1.65) percent of the dose/g | In-vivo radioactivity distribution: lung ([1]; 10 min): 6.33 (1.42) percent of the dose/g | In-vivo radioactivity distribution: pancreas ([1]; 10 min): 2.53 (0.72) percent of the dose/g | In-vivo radioactivity distribution: spleen ([1]; 10 min): 4.00 (1.55) percent of the dose/g | In-vivo radioactivity distribution: stomach ([1]; 10 min): 5.13 (1.67) percent of the dose | In-vivo radioactivity distribution: blood ([1]; 30 min): 2.29 (0.32) percent of the dose/g | In-vivo radioactivity distribution: brain ([1]; 30 min): 0.28 (0.06) percent of the dose/g | In-vivo radioactivity distribution: heart ([1]; 30 min): 1.45 (0.17) percent of the dose/g | In-vivo radioactivity distribution: intestine ([1]; 30 min): 4.36 (1.49) percent of the dose/g | In-vivo radioactivity distribution: kidney ([1]; 30 min): 3.16 (0.80) percent of the dose/g | In-vivo radioactivity distribution: liver ([1]; 30 min): 5.10 (1.12) percent of the dose/g | In-vivo radioactivity distribution: lung ([1]; 30 min): 3.17 (0.52) percent of the dose/g | In-vivo radioactivity distribution: pancreas ([1]; 30 min): 1.48 (0.34) percent of the dose/g | In-vivo radioactivity distribution: spleen ([1]; 30 min): 2.06 (0.28) percent of the dose/g | In-vivo radioactivity distribution: stomach ([1]; 30 min): 9.94 (1.69) percent of the dose | In-vivo radioactivity distribution: blood ([1]; 60 min): 2.89 (0.49) percent of the dose/g | In-vivo radioactivity distribution: brain ([1]; 60 min): 0.15 (0.03) percent of the dose/g | In-vivo radioactivity distribution: heart ([1]; 60 min): 1.43 (0.29) percent of the dose/g | In-vivo radioactivity distribution: intestine ([1]; 60 min): 6.26 (1.78) percent of the dose/g | In-vivo radioactivity distribution: kidney ([1]; 60 min): 2.52 (0.48) percent of the dose/g | In-vivo radioactivity distribution: liver ([1]; 60 min): 4.32 (0.75) percent of the dose/g | In-vivo radioactivity distribution: lung ([1]; 60 min): 3.11 (0.66) percent of the dose/g | In-vivo radioactivity distribution: pancreas ([1]; 60 min): 1.76 (0.40) percent of the dose/g | In-vivo radioactivity distribution: spleen ([1]; 60 min): 2.52 (0.36) percent of the dose/g | In-vivo radioactivity distribution: stomach ([1]; 60 min): 14.32 (1.81) percent of the dose | Ki (Aβ(1-42) aggregate): 0.0141 ± 0.0006 µM

Compound: O=C(C=Cc1cccs1)c1ccc(I)cc1 [Compound 24 in Example 2, 1-(4-iodophenyl)-3-(2-thienyl)-prop-2-en-1-one]
Ki (Aβ(1-42) aggregate): 0.102 ± 0.0159 µM

Compound: CN(C)c1ccc(C=CC(=O)c2ccc(Br)o2)cc1 [Compound 32 in Example 2, 1-(5-bromo-2-furanyl)-3-(4-dimethylaminophenyl)-prop-2-en-1-one]
Ki (Aβ(1-42) aggregate): 0.126 ± 0.0125 µM
